# What was measured:
# [1] = Duration of analgesic efficacy and plasma bicifadine levels in acute pain studies; format: in vivo, human; conditions: bicifadine HCl, unit doses about 200 mg, 400 mg, or 600 mg; acute dental pain and bunionectomy pain studies
# Description: Duration of analgesic efficacy of bicifadine in acute dental pain studies was estimated using a “last observation carried forward” (LOCF) statistical method, and was projected to last up to 6 hours, or even up to 12 hours (see, e.g., Czobor P., et al., Stark J., Beer G., Petti S., Lippa A., Brown J., Beer B.: A Double-Blind, Placebo Controlled Randomized Study of DOV220,075 (bicifadine) SR and Codeine 60 mg in the Treatment of Post-Operative Dental Pain. Presented at the 2nd Annual Scientific Meeting Mar. 20-23, 2003 Chicago, Ill. American Pain Society Abstract Database at http://www.ampainsoc.org/abstract/2003/data/index.html. (Poster #915)); Czobor P., Stark J., Beer G., Brown J., Sunshine A., Konery S., Turpin M., Olson N., Otero A., Lippa A., Beer B.: A two center double-blind, placebo-controlled randomized study of DOV 220,075 (bicifadine) SR and Tramadol 100 mg in the treatment of post-operative dental pain. The Journal of Pain, 2004: 5(1), Supplement 1, p 59. Presented at the Joint APS and Canadian Pain Society Annual Meeting (23rd APS Annual Scientific Meeting) May 6-9, 2004, Vancouver, BC Canada. American Pain Society Abstract Database at http://www.ampainsoc.org/abstract/2004/data/index.html (Poster #801); each incorporated herein by reference). […]
# [2] = Monoiodoacetamide (MIA)-induced osteoarthritis in rats, hind paw weight distribution; format: in vivo, Male Wistar rats; conditions: oral gavage (PO), Day 14 post MIA injection, 1 and 2 hours post-administration; bicifadine 5, 10, 20, 40 or 60 mg/kg, morphine 60 mg/kg; FIG. 1
# Description: Animals were fed standard rat chow with water available ad libitum.
# The rats were anesthetized with 5% volume/volume (“v/v”) isoflurane gas and maintained with 2% v/v isoflurane gas. […] MIA was dissolved in physiologic saline and administered in a volume of 50 μL. The contralateral control knee was injected with 50 μL of physiologic saline. Administration of isoflurane gas was discontinued, and the rats became fully conscious about 5 minutes later.
# Shifts in hind paw weight distribution from the right to the left hind paws supporting the right (arthritic) and the left (contralateral control) hind leg knee joints were utilized as an index of joint pain and as a measure of compound efficacy. An incapacitance tester (Model 2KG, Linton Instrumentation, UK) was employed for determination of hind paw weight distribution.
# The acute dosing paradigm used herein relates to osteoarthritis signs such as mobility and joint function and osteoarthritis symptoms such as joint pain.
# [3] = Visual analog scale (VAS) of osteoarthritis pain in human osteoarthritis subjects; format: in vivo; conditions: 400 mg bicifadine and/or 800 mg ibuprofen twice daily for seven days; baseline to 3 hours post dose on final day; FIG. 2
# Description: (§1) 23 adult human subjects with clinically confirmed osteoarthritis (OA) of the hip or knee were selected based on (1) a finding of OA through clinical analysis of hip or knee pain for at least six months, (2) stiffness symptoms that persisted for more than 30 minutes (4) crepitus and (5) score of >40 mm on the visual analog scale (VAS). […]
# (§2) Each patient's pain and function levels was rated just prior to administration of the first dose in each treatment period to establish a baseline and three hours after administration of the final dose of each treatment period. Subjects were evaluated according to the visual analog scale (FIG. 2), the Western Ontario and MacMaster Universities Osteoarthritis Index (WOMAC) (FIG. 3) and a global assessment score (FIG. 4).
# For the visual analog scale, each subject was asked the following question: “Draw a vertical line on the scale to indicate the average amount osteoarthritis pain you have in your index hip or knee in the prior 24 h period. • No Pain [______] Worst Pain You Can Imagine 100 mm The length of the line from “No Pain” to the vertical line drawn by the patient was then measured to determine the VAS measurement.
# [4] = WOMAC Osteoarthritis Index in human osteoarthritis subjects; format: in vivo; conditions: 400 mg bicifadine and/or 800 mg ibuprofen twice daily for seven days; 3 h post-dose on last day; FIG. 3
# Description: as §1, §2
# Subjects were also evaluated according to the Western Ontario and MacMaster Universities Osteoarthritis Index (WOMAC) and asked the following series of questions: […]
# [5] = Global Assessment of Study Medication in human osteoarthritis subjects; format: in vivo; conditions: 400 mg bicifadine and/or 800 mg ibuprofen twice daily for seven days; 3 h post-dose on last day; scale 0-4; FIG. 4
# Description: 23 adult human subjects with clinically confirmed osteoarthritis (OA) of the hip or knee were selected based on (1) a finding of OA through clinical analysis of hip or knee pain for at least six months, (2) stiffness symptoms that persisted for more than 30 minutes (4) crepitus and (5) score of >40 mm on the visual analog scale (VAS). […] (Altman R. Asch E, Bloch D, Bole G, Borenstein D, Brandt K, et al. The American College of Rheumatology criteria for the classification and reporting of osteoarthritis of the knee. Arthritis Rheum 1986; 29:1039-1049) The subjects were randomized to a sequence of 400 mg of bicifadine twice daily for seven days (B), ibuprofen 800 mg twice daily for seven days (I), placebo twice daily for seven days (P), or 400 mg bicifadine and 800 mg ibuprofen twice daily for seven days (B+I) as shown in Table 3. […]
# as §2
# Subjects were further evaluated for a global assessment and were asked the following question: […]
# [6] = acute dental pain; Stern et al. 2005; cited from earlier work
# [7] = Use of rescue medication in acute dental pain clinical trial (Stern et al.); format: in vivo, human
# Description: These conclusions are further substantiated by the use of rescue medication by subjects in the Stem et al. acute dental pain studies. Table I below summarizes information on the use of rescue medication for patients who took rescue medication among the various treatment groups in the clinical trial reported by Stern et al. (id.) A nonparametric analysis (Median Test) was conducted to evaluate the median latency to rescue medication.
# Survival analysis (Kaplan-Meier method, 95% confidence) was performed to compare the treatment groups with regard to time-to-rescue medication. […] The analysis yielded a statistically significant difference among the treatment groups (Log-Rank test, Chi-square=26.9, df=4, P=0.0001). […] In view of the foregoing evidence, the present disclosure documenting efficacy of a reduced, bi-daily or less frequent dosing regimen of bicifadine to yield effective treatment of chronic pain are unexpected. […] It is a surprising benefit, therefore, that a dosing regimen consisting of only one or two doses of bicifadine effectively alleviates symptoms of chronic pain over an extended period. The extended period of efficacy of the novel compositions and dosage forms of the invention provide significant relief of chronic pain symptoms over a period of at least 8 hours, or at least 12 hours, often at least 18 hours, and up to 24 hours or longer.
Structure (SMILES),Period of analgesic efficacy for effectively treating acute pain [1],Effect on osteoarthritis-related pain (change in hind paw weight distribution) [2],Reduction of OA pain as measured by the visual analog scale [3],Improvement of functioning as determined by the WOMAC osteoarthritis index [4],Global assessment score of study medication [5],Plasma bicifadine levels associated with the greatest pain relief [6] [ng/mL],Plasma drug levels associated with significant analgesic efficacy [6] [ng/mL],Plasma drug levels not associated with significant analgesic effects [6] [ng/mL],"Time-to-rescue medication vs placebo (Kaplan-Meier survival analysis, Log-Rank test) ([7]; 100-mg, Chi-square=18.7, df=1, P=0.0001)",Median Time to Rescue Medication ([7]; single dose 100 mg) [h],Used Rescue Medication (N) No ([7]; single dose 100 mg),Used Rescue Medication (N) Yes ([7]; single dose 100 mg)
"Cc1ccc(C23CNCC2C3)cc1 (racemic) [bicifadine, (±)-1-(4-methylphenyl)-3-azabicyclo[3.1.0]hexane]",up to 6 hours,no significant effect,no different than treatment with placebo,no better than placebo,marginally better than treatment with either placebo or ibuprofen alone,> 1000,500 to 1000,≤ 500,–,–,–,–
"CC(C)Cc1ccc(C(C)C(=O)O)cc1 (centres unmarked) [ibuprofen, reference compound]",–,–,no different than treatment with placebo,no better than placebo,–,–,–,–,–,–,–,–
COc1cccc(C2(O)CCCCC2CN(C)C)c1 (centres unmarked) [Tramadol],–,–,–,–,–,–,–,–,significantly less likely to use rescue medication,2.45,24,85
